16 molecules from patent US20070269664A1, “Gas Barrier Laminated Film and Process for Producing the Same” (Sai Nippon Printing Co., Ltd., priority 2004, published 2007) can be followed below.

The assay concerns cotton aphid (Aphis gossypii). Briefly: Foliar spray test on cotton seedlings infested with cotton aphid. The following applies: 72 h, read-out: Percent Mortality. It is filed as in vivo. As to the method:
Insecticidal testing was conducted on specific compounds of the present invention. Specifically, the compounds referenced below were evaluated on 7-10 day old cotton seedlings infested with cotton aphid (Aphis gossypii). At least 12 hours prior to the test, leaf cuttings containing about 50 adult aphids were placed on leaves of each of duplicate cotton seedlings for each rate of application of compound of formula (I). Solutions of the compounds of formula (I) were prepared for testing by serial dilution of a standard solution comprised of an appropriate amount of the test material in a water/acetone solvent, which contained a small amount of a surfactant. Rates of application of compounds of formula (I) may range from about 1000 parts per million (ppm), or more, to about 3 ppm, or less, in a rate series of, for example, 1000 ppm, 300 ppm, 100 ppm, 30 ppm, 10 ppm, and 3 ppm. The solutions containing each rate of application of compounds of formula (I) were then sprayed to run-off to both the upper and lower portions of the leaves of the aphid-infested cotton seedlings. Each test of foliar-applied compounds of formula (I) included appropriate standard insecticides of known insecticidal activity and blank treatments to aid in assessing the insecticidal activity of the compounds of formula (I). Upon completion of the spraying with compounds of formula (I), the cotton seedlings were maintained in a growth chamber for a period of 72 hours. After this time, the seedlings were examined for dead insects. Insects were classified as dead if they were off-color or brown and desiccated. Upon completion of the evaluation of the test, the percent mortality of the cotton aphid for each rate of application of compounds of formula (I) was determined by comparison of the total number of dead insects to the total number of insects in the test.

Structures are written as SMILES.

Take `CCCCOc1ccc(CCOn2c(C)nc3c(F)cccc32)cc1Cl` [Compound 246, 1-[2-(3-chloro-4-n-butoxyphenyl)ethoxy]-4-fluoro-2-methylbenzimidazole]: the mortality at 1000 ppm is 100%.

Consider `CCCCOc1ccc(CCNn2c(C)nc3ccccc32)cc1Cl` [Compound 314, 1-[2-(3-chloro-4-n-butoxyphenyl)ethylamino]-2-methylbenzimidazole], for which the mortality at 1000 ppm was determined as 100%.

Turning to `CCCCOc1ccc(CCNn2c(C)nc3c(F)cccc32)cc1Cl` [Compound 323, 1-[2-(3-chloro-4-n-butoxyphenyl)ethylamino]-4-fluoro-2-methylbenzimidazole], the mortality at 100 ppm came to 96%.

As to `CCCCOc1ccc(CCOn2c(C)nc3c2CCCC3)cc1Cl` [Compound 244, 1-[2-(3-chloro-4-n-butoxyphenyl)ethoxy]-2-methyl-4,5,6,7-tetrahydrobenzimidazole], the mortality at 1000 ppm was 98%.

With `CCCCOc1c(C)cc(CCNn2c(C)nc3ccccc32)cc1C` [Compound 320, 1-[2-(3,5-dimethyl-4-n-butoxyphenyl)ethylamino]-2-methylbenzimidazole], the mortality at 100 ppm is 99%.

Take `Cc1nc2ccccc2n1OCCc1ccc(C(C)(C)C)c(Cl)c1` [Compound 135, 1-[2-[3-chloro-4-(1,1-dimethylethyl)phenyl]ethoxy]-2-methylbenzimidazole]: the mortality at 1000 ppm was found to be 86%.

On to `CCCOC(=O)c1ccc(CCNn2c(C)nc3ccccc32)cc1Cl` [Compound 302, propyl 2-chloro-4-[2-(2-methylbenzimidazol-1-ylamino)ethyl]benzoate], for which the mortality at 100 ppm was 84%.

As for `CCCC(CCC)Oc1ccc(CCOn2c(C)nc3c(C)cccc32)cc1` [Compound 413, 1-[2-[4-(1-propylbutoxy)phenyl]ethoxy]-2,4-dimethylbenzimidazole], the mortality at 100 ppm is 80%.

As for `CCCCOc1ccc(CCOn2c(C)nc3ccccc32)cc1Cl` [Compound 163, 1-[2-(3-chloro-4-n-butoxyphenyl)ethoxy]-2-methylbenzimidazole], the mortality at 1000 ppm amounted to 88%.

For `CCCCOc1ccc(CCNn2c(=O)n(C)c3ccccc32)cc1Cl` [Compound 417, 1-[2-(3-chloro-4-n-butoxyphenyl)ethylamino]-1,3-dihydro-3-methyl-2H-benzimidazol-2-one], the mortality at 100 ppm worked out at 3%.

For `CCCCOc1c(C)cc(CCNn2c(C)nc3cc(F)ccc32)cc1C` [Compound 329, 1-[2-(3,5-dimethyl-4-n-butoxyphenyl)ethylamino]-5-fluoro-2-methylbenzimidazole], the mortality at 100 ppm was 93%.

In the case of `CCCCOc1ccc(CCOn2c(C)nc(C)c2C)cc1Cl` [Compound 9, 1-[2-(3-chloro-4-n-butoxyphenyl)ethoxy]-2,4,5-trimethylimidazole], the mortality at 1000 ppm amounted to 100%.

For the molecule `CCCCOc1ccc(C(C)(C)CNn2c(C)nc3ccccc32)cc1` [Compound 305, 1-[[2-methyl-2-(4-n-butoxyphenyl)propyl]amino]-2-methylbenzimidazole], the mortality at 1000 ppm is 96%.

Consider `CCON=Cc1c(F)cc(CCOn2c(C)nc3ccccc32)cc1F` [Compound 1323, 1-[2-(3,5-difluoro-4-ethoxyiminomethylphenyl)ethoxy]-2-methylbenzimidazole], for which the mortality at 100 ppm was 97%.

`CCCCOc1ccc(CCOn2nnc3ccccc32)cc1Cl` [Compound 285, 1-[2-(3-chloro-4-n-butoxyphenyl)ethoxy]-1H-benzotriazole]: the mortality at 1000 ppm came to 31%.

Turning to `CCCCOc1ccc(CCOn2c(C)nc3c(C)cccc32)cc1Cl` [Compound 266, 1-[2-(3-chloro-4-n-butoxyphenyl)ethoxy]-2,4-dimethylbenzimidazole], the mortality at 1000 ppm is 100%.
